Assay results taken from patent publication US20200054271A1, “COMPUTER-BASED LIVER MODEL” (priority 2017, published 2020).
One block for each compound: values may come before it.

Columns and labels:
[1] = system: bile flow in the BC network; assay: Bile velocity and apical CF transport by intravital microscopy (IVM) of CF(DA) transport with 3-compartment model; type: in vivo, mouse
Procedure: (§1) As controls, mice were administered 0.9% saline.
The objective was heated to 37° C.
Quantification of the CF intensity in the hepatocyte cytoplasm and BC from IVM movies was performed using the image analysis software MotionTracking. Following correction for shift, IVM movies contained 16-21 frames per stack, covering 15-20 μm in z. To avoid liver damage from photo-toxicity, IVM movies were acquired with minimum laser intensities resulting in low signal-to-noise ratio. […] Therefore, we used the modified Mean-Shift algorithm to separate the CF fluorescence from the background. The result of the background/foreground discrimination was checked manually. The BC were detected in three steps. First, the image was convolved with Laplacian of Gaussian. Second, pixels with an intensity >2 standard deviations of the local noise were defined as potential BC. The local noise was determined from the local intensity minimums in at least one of 4 discrete directions. Third, along the line of the local maximum intensity direction of a BC, pixels that co-localized with sharp intensity transitions between the cytoplasm and sinusoids were excluded from the BC compartment. For all compartments (cytoplasm, BC and background), the mean intensity was calculated. To avoid mixing of compartments from light scattering of bright objects (BC to cytoplasm and cytoplasm to background), the area within the radius of 2 pixels from the object border was excluded from the calculation.
The transport of CF(DA) from the blood into and through the biliary network was described in a mathematical model that considers 3 hepatic compartments: the blood (s), hepatocytes cytoplasm (c) and bile canaliculi (b) (see FIG. 2F). Dye propagation through these three compartments was modelled for three spatially distinct zones within the liver lobule: The CV, MD and PV zone as defined in FIG. 2C. The different zone geometries of the kite-shaped CV-PV axis were accounted for by introducing respective geometry factors. The model considers that only a fraction of the injected CFDA is delivered to the liver, whereas the rest is cleared by other tissues at rate κclear. The injection of CFDA into the blood circulation is described by Pulse(t). It is defined by the time point of injection start (τ1) and the injection duration (τ2) assuming that CFDA is injected with constant rate in time t>τ1 and <τ1+τ2. Both τ1 and τ2 were fitted by the model with boundary intervals 40-80 sec (τ1) and 20-60 sec (τ2). In the liver, the model considers that CFDA is taken up from the blood with a permeability coefficient Perm=3 sec^−1 (according to (Breeuwer et al., 1995), considering a mammalian plasma membrane thickness of 4 nm), converted into CF by cytoplasmic esterases with cleavage rate κcleav and secreted by apical transporters with transporter activity κpump. To account for the spatial heterogeneity of esterase and transporter levels within the CV-PV axis, the amounts of both esterases (qi) and apical transporters (q1i) were determined for each zone (i=cv, md, pv). The model further considers passive back flux of CF from the BC into the hepatocyte cytoplasm at rate κli. The bile canaliculi compartment of the three zones is connected, occurs unidirectional and sequential from the CV to the MD with transport rate
Bile flow velocity vi at the interfaces of the lobule zones was estimated from the volume flux rates
considering the size of the zone volumes V and zone boundaries Ai (i=cv, md, pv) as well as a CV-PV axis distance L of 229 μm: […]

[2] = system: bile canaliculi (BC) network; assay: BC network geometry (BC radius) from 3D reconstruction of CD13-stained fixed liver tissue sections; type: in vivo, mouse
Procedure: as §1
All steps were performed at room temperature.
Fixed tissue was imaged with a Zeiss laser scanning microscope 780 NLO using a 63×1.3 numerical aperture (NA) glycerol immersion objective (Zeiss), a Chameleon Ti-Sapphire 2-photon laser (780 nm), 488 and 561 laser lines and Gallium arsenide phosphide (GaAsp) detectors.
3D reconstructions of the BC network were performed on high-resolution IF image stacks of fixed liver tissue stained for the apical marker CD13 (voxel size: 0.28×0.28×0.3 μm, 70-80 μm in depth). A tile of 2×1 image stacks was stitched to cover an entire CV-PV axis. Images were processed, analyzed and reconstructed using the software MotionTracking as described in (Morales-Navarrete et al., 2015). In brief, images were segmented using a local thresholding algorithm (maximum entropy), segmented objects were corrected for artefacts using standard morphological operations (opening/closing) and the triangulation mesh of the segmented surfaces was generated by the cube marching algorithm. The active mesh was tuned to align the triangle mesh vertexes to the maximum gradient of fluorescence intensity in the original image. A representation of the skeletonized image was generated using a 3D graph describing the geometrical and topological features of the BC network. For the spatial analysis of BC radius, porosity and network density, the CV-PV axis was computationally divided into 20 equidistant zones based on the distance dof each position x from the CV (dCV) and PV (dPV):
Then, the average radius and porosity was determined per zone. For the radius, the minimal distance of each node of the central line of the BC network was quantified in the xy-plane. For the BC network density, the network length per tissue volume was calculated. For the tissue porosity, […]

[3] = from the literature; cited from earlier work
[4] = according to Breeuwer et al., 1995, considering a plasma membrane thickness of 4 nm; cited from earlier work
[5] = mouse, in vivo, iv
Procedure: Mouse anaesthesia was induced with 3-4% isoflurane/0.3% oxygen and maintained by i.p. injection of ketamine/xylazine throughout the experiment. Mice received 20 U of heparin dissolved in 0.9% (w/v) NaCl by i.p. injection to prevent ischemia of the liver during the course of imaging. To visualize hepatocyte nuclei, Hoechst 33258 dissolved in 0.9% (w/v) NaCl was administered retro-orbitally at a dose of 2 mg/kg and in a total volume of 50 μl. To expose the liver for imaging, the abdominal fur was removed using an electric shaver and a small transversal incision of 1 cm was made at the height of the sternum to expose the left lateral liver lobe using a surgical scissor and cauterizer. The mouse was positioned on the stage of an IX81 inverted confocal microscope equipped with a Fluoview 1000 scanning head (Olympus America) and a heat-adjustable UPLSAPO30X, 30×1.05 NA silicon oil objective (Olympus). The objective was heated to 37° C. To avoid compression of the liver lobe and to stabilize the tissue, the stage was designed with a small hole in the center into which the left lateral lobe was carefully placed. The residual volume of the hole was filled with a water based and transparent 1% carbomer gel (0.3 M Sorbitol, 1% (w/v) Carbomer 940, polymerized by addition of triethanolamine and adjusted to pH 7) to immobilize the organ and prevent the organ from drying out. The bottom of the hole was designed with a coverslide through which the organ was accessible for imaging. The animal body temperature was kept at 37° C. using a red lamp. Prior to imaging start, 18 mg/kg of 70 kDa Rhodaminedextran or 20 μl of Qtracker 655 vascular label dissolved in 0.9% (w/v) NaCl was injected retro-orbitally to identify the lobule orientation from the vascular flow pattern. To monitor the flux of CFDA in the liver, CFDA, dissolved in dimethyl sulfoxide (DMSO), was injected retro-orbitally at a dose of 0.2 mg/kg in a total volume of 50 μl. CFDA injection was performed slowly (approx. 30 sec) to avoid hydrodynamic effects and performed at 1 min after image acquisition start. […]

[6] = system: phosphorylated myosin light chain (pMLC); assay: Western blot of phosphorylated myosin light chain in liver tissue of treated mice; type: in vivo; details: 20 mg/kg Fasudil for 1.5 h, mouse liver
Procedure: As controls, mice were administered 0.9% saline. […] Cell debris were removed by centrifugation for 10 min at 12 000×g at 4° C. and protein was denatured at 95° C. in presence of 100 mM dithiothreitol (DTT). A total of 10 μg protein was separated by sodium dodecyl sulfate polyacrylamide gel electrophoresis, and transferred onto a nitrocellulose membrane. Membranes were blocked and incubated with primary antibodies against glyceraldehyde 3-phosphate dehydrogenase (GAPDH, 1:2000) or phospho-myosin light chain (pMLC, 1:500) and HRP-conjugated secondary antibodies (1:10000) in 5% dry-milk, 10 mM Tris-HCl pH 8.0, 200 mM NaCl, 0.1% Tween20. Protein was detected using the enhanced chemiluminescence (ECL) detection kit (GE Healthcare, Buckinghamshire, UK) and chemiluminescence films (GE Healthcare, Buckinghamshire, UK) according to manufacturer's instructions. Plasma membrane contractility is determined by the cortical acto-myosin system ([…] et al., 2016; Tsukada and Phillips, 1993). […] Consequently, inhibition of acto-myosin contractility should affect biliary fluid dynamics. […] We next analyzed the BC network geometry on fixed liver tissue sections and found a dilation of BC in Fasudil-treated mice (FIG. 5B).

[7] = APAP 150 mg/kg i.p., 2 h, IVM of CF(DA) transport

Structure (SMILES): CC(=O)Nc1ccc(O)cc1 [APAP, acetaminophen]
bile velocity in the peri-portal zone [1, 7]: remained almost unaffected
measured increase in bile velocity in the CV and MD zones [1, 7]: 1.4-1.6 fold
effects on osmolite secretion ([1]; APAP treatment): marginal
dilation of BC, CV zone ([2]; APAP 150 mg/kg i.p., 2 h, immersion fixed, CV zone, pvalue<0.01): up to 20%
dilation of BC, MD zone ([2]; APAP 150 mg/kg i.p., 2 h, immersion fixed, MD zone, pvalue<0.0001): ≤ 18%
maximum reported sub-toxic dose [3]: 150 mg/kg

time until detectable in the hepatocyte cytoplasm [5]: within seconds
Structure (SMILES): CC(=O)Oc1ccc2c(c1)Oc1cc(OC(C)=O)ccc1C21OC(=O)c2ccc(C(=O)O)cc21 [CFDA, 6-carboxyfluorecein-diacetate]
permeability coefficient Perm for uptake from the blood [4]: 3 s⁻¹

Structure (SMILES): O=S(=O)(c1cccc2cnccc12)N1CCCNCC1 [Fasudil]
reduction of bile velocity across the CV-PV axis as compared to control mice ([1]; Fasudil 20 mg/kg i.p., 1.5 h, IVM of CF(DA) transport): 50-58%
apical CF transport ([1]; Fasudil-treated mice, IVM): reduction
apical secretion fluxes summed over the entire CV-PV axis, Jt ([1]; Fasudil-treated, t=500 sec): 0.0390 arbitrary intensity units per time
apical secretion flux of CF, CV zone ([1]; Fasudil-treated, t=500 sec, CV zone): 0.0019 arbitrary intensity units per time
apical secretion flux of CF, MD zone ([1]; Fasudil-treated, t=500 sec, MD zone): 0.0312 arbitrary intensity units per time
apical secretion flux of CF, PV zone ([1]; Fasudil-treated, t=500 sec, PV zone): 0.0059 arbitrary intensity units per time
BC radius increase as compared to control mice, MD zone ([2]; Fasudil 20 mg/kg i.p., 1.5 h, MD zone, pvalue<0.0001): up to 12%
BC radius increase as compared to control mice, PV zone ([2]; Fasudil 20 mg/kg i.p., 1.5 h, PV zone, pvalue<0.001): ≤ 7%
extrapolated BC radius at x=L, at(L) ([2]; Fasudil-treated mice, apparent radius at portal outlet): 1.422 μm
phosphorylated myosin light chain (pMLC) protein levels [6]: reduction

time until cleared from the system [5]: ~40 min
time until visible in the BC network [5]: 3 to 5 min
Structure (SMILES): O=C(O)c1ccc2c(c1)C1(OC2=O)c2ccc(O)cc2Oc2cc(O)ccc21 [CF, 6-carboxyfluorescein]
